Results taken from patent publication US20030077317A1, “Methods and compositions for enhancing the bioadhesive properties of polymers using organic excipients” (Brown University Research Foundation, priority 1996, published 2003).

Experiments:
[1] = test system: everted intestine; assay: Distribution of acetaminophen in tissue compartments after incubation of everted intestine in vitro; format: in vitro ADME, rat
Experimental: An in vitro assay for quantifying bioadhesion of microspheres to intestinal tissue was used to test the hot melt microspheres made as described in Example 2 (Jacob et al., Proceed,. Intern. Symp. Control. Rel. Bioact. Mater. 22:312-313 (1995). Everted sac experiments were performed using the microsphere formulations listed above. 6 cm segments of rat jejunum flushed with phosphate buffered saline (PBS), everted and fashioned into sacs filled with PBS. Sacs were incubated with 60 mg of microspheres in 5 ml of PBS at 37° C. with end-over-end agitation. After 30 min, the sacs were removed and the unbound microspheres were collected, washed with distilled water, frozen and lyophilized for 24 hrs. The weight of unbound beads was used to determine the amount of beads bound to the intestine:
The FAPP:SAPP 92:8 18% acetaminophen microspheres were made using the hot melt method described in Example 2, and were used in everted sac experiments and the release of drug was determined to yield information on bioavailability. The release was determined by homogenizing intestinal tissue and mucosal and serosal fluids. The homogenates were centrifuged and the supernatant fluids were assayed for acetaminophen.

[2] = test system: rats; assay: Oral (stomach tube) insulin delivery in rat model, glucose tolerance after subcutaneous glucose load; format: in vivo; conditions: fed by stomach tube, by 3 hours
Experimental: The delivery of insulin after adminstration of the nanoparticles, loaded with 10% (w/w) micronized FeO, was studied in a rat model. Five 300 g fasted rats were anaesthetized with Metofane and fed the following formulations by stomach tube: Rats 1 and 2: 0.5 mL saline Rat 3: 24 I.U. insulin/0.5 mL saline (amorphous suspension) Rats 4 and 5: 50 mg FAPP/PLGA nanospheres containing 20 I.U. insulin and 10% (w/w)FeO Blood samples from the tail vein were taken as an initial baseline and rats were subsequently tested for glucose tolerance following injection of a subcutaneous glucose load, consisting of 5 mL of 5% sterile glucose solution. Tutwiler et al., Diabetes, 27:856-867 (1978). At 1, 3, 4 and 5 hours postfeeding, blood samples were again taken and plasma glucose levels were measured spectrophotometrically at 505 nm using the Trinder glucose assay.

| Compound | acetaminophen in gut wall ([1]; everted intestine in vitro) | acetaminophen in mucosal fluid ([1]; everted intestine in vitro) | acetaminophen in serosal fluid ([1]; everted intestine in vitro) | mucosal/serosal ratio ([1]; everted intestine in vitro) | acetaminophen distribution, gut wall ([1]; everted sac) | acetaminophen distribution, mucosal fluid ([1]; everted sac) | acetaminophen distribution, serosal fluid ([1]; everted sac) | increase in blood glucose level over fasting baseline [2] |
| --- | --- | --- | --- | --- | --- | --- | --- | --- |
| CC(=O)Nc1ccc(O)cc1 [control, acetaminophen] | 19 ± 7 mg/dL | 39 ± 1 mg/dL | 13 ± 1 mg/dL | 3.0 | 7.9 ± 0.9 % of total dose | 86.5 ± 1.5 % of total dose | 5.7 ± 0.9 % of total dose | – |
| insulin [oral insulin solution] | – | – | – | – | – | – | – | 62% |
